In patent publication US11091476B2, “Protein kinase inhibitors, preparation method and medical use thereof” (Gan & Lee Pharmaceuticals, priority 2015, dated 2021):

System: U87-luc orthotopic brain xenograft
Test: Pharmacodynamic study in U87-luc orthotopic brain xenograft model, median survival
Type: in vivo, BALB/c nude mice
Details: for Medium survival: survival time range in brackets
Description: Pharmacodynamic study of the compound 17 of this disclosure and the combination of compound 17 of the disclosure and temozolomide in a U87-luc orthotopic brain xenograft model
Adult female BALB/c nude mice were used as test animals. A U87-luc orthotopic brain xenograft model was used to study the effect of representative compound 17 of this disclosure on the median survival of female BALB/c nude mice after intragastric administration.
Healthy adult female BALB/c nude mice, 8 mice/group, 6-8 weeks old, weighing 18-22 g, purchased from Shanghai SIPPR-BK Laboratory Animal Co., Ltd., Animal Production License No: 2008001658261; 2008001658263. • 7.2.3 Preparation of the test compounds
An appropriate amount of compound 17 was weighed, and added with 0.1% hydroxyethyl cellulose/0.5% TWEEN®80 as vehicle to 0.3125 mg/ml;
An appropriate amount of Temozolomide sample was weighed, and added with 0.1% CMC-Na+0.25% TWEEN®80 as vehicle to 0.3 mg/ml.
Adult female BALB/c nude mice were anesthetized by intraperitoneal injection of sodium pentobarbital at a dose of 80 mg/kg. To relieve pain, animals were injected subcutaneously with buprenorphine at the time points 30 minutes before operation and 6 hours after operation at a dose of 0.1 mg/kg. Animals were observed after anesthesia until all animals had awakened.
The anesthetized animals were properly fixed, the animals' head skin was sterilized with 70% ethanol, and an approximately 10 mm long incision was made on the right side of the midline from the forehead to the ear line. 3×10^5 U87-luc cells (3 μl, mixture of PBS and Matrigel at a ratio of 4:1) were inoculated at the right frontal lobe that is 2 mm away from the right side of the bregma and is 1 mm away from the front side of the coronal suture in each animal. The incision was sutured with a No. 6 suture, and sterilized with polyvinylpyrrolidone. Animals are kept warm until anabiosis. Six days after tumor cell transplantation, tumor animals were grouped by stratified randomization based on […] signal intensity values, and the average bioluminescence reached 2.812E+07 photons/sec when the groups were administered in groups. Different animal groups were administered at different doses for a total of 35 days.

How did the Medium survival (3.125 mg/kg QD intragastric) turn out when `CC1=Nc2c(F)cc(-c3nc(Nc4ccc(C5CCN(C)CC5)cn4)ncc3F)cc2C12CCCC2` [Example 17, 5-Fluoro-4-(7′-fluoro-2′-methylspiro[cyclopentane-1,3′-indol]-5′-yl)-N-(5-(1-methylpiperidin-4-yl)pyridin-2-yl)pyrimidine-2-amino] was run?
Its Medium survival is 38.5(26-59) days.

What about the Medium survival (6.25 mg/kg QD intragastric) of the same molecule?
The Medium survival was 43.5(31-48) days.

And the Medium survival (12.5 mg/kg QD intragastric)?
The Medium survival was 44.5(31-114) days.

And the Medium survival (25 mg/kg QD intragastric)?
The Medium survival was 61(41-76) days.

And the Medium survival (50 mg/kg QD intragastric)?
The Medium survival was 78.5(63->114) days.

What about the “Effect on median survival, in words” value (dose-dependent) of the same molecule?
Its value is “significantly prolong the median survival”.
